The target in one test is T1, muscarinic M2 receptor (Homo sapiens, UniProt P08172).
T1 construct: expressed in transfected cells
T1 sequence (P08172 1-466): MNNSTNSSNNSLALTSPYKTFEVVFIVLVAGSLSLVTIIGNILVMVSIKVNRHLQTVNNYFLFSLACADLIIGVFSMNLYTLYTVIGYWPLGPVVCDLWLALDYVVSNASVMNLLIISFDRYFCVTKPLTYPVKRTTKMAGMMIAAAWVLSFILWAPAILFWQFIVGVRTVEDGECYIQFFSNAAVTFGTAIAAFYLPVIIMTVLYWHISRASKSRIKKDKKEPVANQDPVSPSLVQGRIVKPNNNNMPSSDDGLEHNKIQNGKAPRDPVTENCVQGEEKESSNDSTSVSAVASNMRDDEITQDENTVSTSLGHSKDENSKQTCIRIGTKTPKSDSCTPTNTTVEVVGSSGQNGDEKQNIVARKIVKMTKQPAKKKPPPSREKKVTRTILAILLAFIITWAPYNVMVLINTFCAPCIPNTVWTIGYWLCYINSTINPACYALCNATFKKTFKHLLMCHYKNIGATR
In words: R-SAT functional screen, M2. The note with it: R-SAT; for Emax: read-out: M2 eff (efficacy); for EC50: read-out: M2 pEC50 (converted). It counts as cell-based. The protocol:
(§1) Several compounds disclosed herein were evaluated for activity at muscarinic receptors using Receptor Selection and Amplification Technology (R-SAT) as described in U.S. Pat. No. 5,707,798, the disclosure of which is incorporated herein by reference in its entirety. The efficacy (eff) and potency (expressed as pEC50) of these compounds are presented in Table 1 at M1, M2, and M3 receptors.

A further test has as its target T2, muscarinic M1 receptor (Homo sapiens, UniProt P11229).
T2 construct: expressed in transfected cells
T2 sequence (P11229 1-460): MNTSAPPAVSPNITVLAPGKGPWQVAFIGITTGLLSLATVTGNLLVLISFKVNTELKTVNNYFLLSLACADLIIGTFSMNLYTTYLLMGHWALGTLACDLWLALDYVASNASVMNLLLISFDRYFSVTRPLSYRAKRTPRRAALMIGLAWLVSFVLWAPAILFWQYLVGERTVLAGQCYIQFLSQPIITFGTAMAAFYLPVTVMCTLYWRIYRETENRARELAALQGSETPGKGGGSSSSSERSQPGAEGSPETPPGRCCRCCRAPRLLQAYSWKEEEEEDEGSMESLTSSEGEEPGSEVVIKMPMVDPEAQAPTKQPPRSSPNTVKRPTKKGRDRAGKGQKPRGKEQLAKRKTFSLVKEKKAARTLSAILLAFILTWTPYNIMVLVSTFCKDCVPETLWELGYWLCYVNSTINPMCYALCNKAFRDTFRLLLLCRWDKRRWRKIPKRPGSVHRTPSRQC
The experiment in a line: R-SAT functional screen, M1. Type of test: cell-based. The note with it: R-SAT; for Emax: read-out: M1 eff (efficacy). The procedure: as §1

Results on 37 compounds are retold here after patent publication US20090239840A1, “AMINO SUBSTITUTED DIARYL[a,d]CYCLOHEPTENE ANALOGS AS [sequence] AGONISTS AND METHODS OF TREATMENT OF NEUROPSYCHIATRIC DISORDERS” (ACADIA PHARMACEUTICALS, INC., priority 2003, published 2009).

The structures appear in SMILES notation.

Consider `Clc1ccc2c(c1)N=C(N1CCNCC1)c1ccccc1N2Cc1ccccc1`, for which the values for the Emax on muscarinic M2 receptor and on muscarinic M1 receptor were 16% and 41%, respectively. Moreover, the EC50 on muscarinic M1 receptor (read-out: M1 pEC50 (converted)) is 0.501 µM.
In the case of `C[C@@H]1CN(C2=Nc3cc(Cl)ccc3Nc3ccccc32)[C@@H](C)CN1` (relative stereo) [8-Chloro-11-(trans-2,5-dimethyl-piperazin-1-yl)-5H-dibenzo[b,e][1,4]diazepine], the Emax on muscarinic M2 receptor came out at 24%; at muscarinic M1 receptor, 8%.
Regarding `Clc1ccc2c(c1)N=C(N1CCNCC1)c1c(Cl)cccc1N2` [1,8-Dichloro-11-(piperazin-1-yl)-5H-dibenzo[b,e][1,4]diazepine], on muscarinic M2 receptor, the Emax was found to be 84% and the EC50 is 2 µM.
Turning to `NC1CCN(C2=Nc3cc(Cl)ccc3Nc3ccccc32)CC1` [1-(8-Chloro-5H-dibenzo[b,e][1,4]diazepin-11-yl)-piperidine-4-yl-amine], at muscarinic M2 receptor, the Emax came to 95% and the EC50 was 2.51 µM. Moreover, the Emax on muscarinic M1 receptor came to 6%.
Take `NC1CCN(C2=Nc3cc(Cl)ccc3Nc3ccccc32)C1` (stereo not drawn) [1-(8-Chloro-5H-dibenzo[b,e][1,4]diazepin-11-yl)-pyrrolidin-3-yl-amine]: the values for the Emax at muscarinic M2 receptor and on muscarinic M1 receptor were 36% and 8%, respectively. The EC50 on muscarinic M2 receptor was 3.16 µM.
Regarding `Clc1ccc2c(c1)Nc1ccc(Cl)cc1C(N1CCNCC1)=N2` [2,7-Dichloro-11-(piperazin-1-yl)-5H-dibenzo[b,e][1,4]diazepine], the Emax is -14% on muscarinic M2 receptor and -2% at muscarinic M1 receptor.
`Brc1ccc2c(c1)N=C(N1CCNCC1)c1cc(Br)ccc1O2` [2,8-Dibromo-11-(piperazin-1-yl)-dibenzo[b,f][1,4]oxazepine]: the Emax at muscarinic M2 receptor came to 6%.
In the case of `Clc1ccc2c(c1)N=C(N1CCNCC1)c1cc(Cl)ccc1N2` [2,8-Dichloro-11-(piperazin-1-yl)-5H-dibenzo[b,e][1,4]diazepine], the figures for the Emax on muscarinic M2 receptor and at muscarinic M1 receptor were 24% and 1%, respectively.
Taken in the same sequence, the figures for `O=S(=O)(Oc1ccc2c(c1)C(N1CCNCC1)=Nc1ccccc1N2)C(F)(F)F` [2-(Trifluoromethanesulfonyloxy)-11-(piperazin-1-yl)-5H-dibenzo[b,e][1,4]diazepine] were 9% and -8%.
Taken in the same sequence, the figures for `O=S(=O)(Oc1ccc2c(c1)C(N1CCNCC1)=Nc1ccccc1O2)C(F)(F)F` [2-(Trifluoromethanesulfonyloxy)-11-(piperazin-1-yl)-5H-dibenzo[b,e][1,4]oxazepine] were 4% and -11%.
Take `Clc1ccc2c(c1)Oc1ccc(Br)cc1C(N1CCNCC1)=N2` [2-Bromo-7-chloro-11-(piperazin-1-yl)-dibenzo[b,f][1,4]oxazepine]: on muscarinic M2 receptor, the Emax amounted to 15%.
For `Clc1ccc2c(c1)N=C(N1CCNCC1)c1cc(Br)ccc1N2` [2-Bromo-8-chloro-11-(piperazin-1-yl)-5H-dibenzo[b,e][1,4]diazepine], the Emax came to 19% at muscarinic M2 receptor and 6% at muscarinic M1 receptor.
For `Clc1ccc2c(c1)N=C(N1CCNCC1)c1cc(Br)ccc1O2` [2-Bromo-8-chloro-11-(piperazin-1-yl)-dibenzo[b,f][1,4]oxazepine], the Emax at muscarinic M2 receptor came out at 13%.
Still for that read-out and setting: as for `Fc1ccc2c(c1)N=C(N1CCNCC1)c1cc(Br)ccc1O2` [2-Bromo-8-fluoro-11-(piperazin-1-yl)-dibenzo[b,f][1,4]oxazepine], the figure is 21%; as for `Cc1ccc2c(c1)N=C(N1CCNCC1)c1cc(Br)ccc1O2` [2-Bromo-8-methyl-11-(piperazin-1-yl)-dibenzo[b,f][1,4]oxazepine], 17%.
On the same count and under the same terms, to `FC(F)(F)c1ccc2c(c1)N=C(N1CCNCC1)c1cc(Br)ccc1O2` [2-Bromo-11-(piperazin-1-yl)-8-trifluoromethyl-dibenzo[b,f][1,4]oxazepine] belongs 11%.
On to `Brc1ccc2c(c1)C(N1CCNCC1)=Nc1ccccc1O2` [2-Bromo-11-(piperazin-1-yl)-dibenzo[bf][1,4]oxazepine], for which the Emax at muscarinic M2 receptor was 9%.
In the case of `FC(F)(F)c1ccc2c(c1)N=C(N1CCNCC1)c1ccc(Cl)cc1N2` [3-Chloro-11-(piperazin-1-yl)-8-trifluoromethyl-5H-dibenzo[b,e][1,4]diazepine], the Emax on muscarinic M1 receptor was 11%.
`COc1ccc2c(c1)Oc1ccc(C)cc1N=C2N1CCNCC1` [3-Methoxy-8-methyl-11-(piperazin-1-yl)-dibenzo[b,f][1,4]oxazepine]: on muscarinic M2 receptor, the Emax was 45% and the EC50 is 3.16 µM.
`COc1ccc2c(c1)Oc1ccc(C(F)(F)F)cc1N=C2N1CCNCC1` [3-Methoxy-11-(piperazin-1-yl)-8-trifluoromethyl-dibenzo[b,f][1,4]oxazepine]: at muscarinic M2 receptor, the Emax turned out to be 17%.
`COc1ccc2c(c1)Oc1ccccc1N=C2N1CCNCC1` [3-Methoxy-11-(piperazin-1-yl)-dibenzo[b,f][1,4]oxazepine]: at muscarinic M2 receptor, the Emax came out at 45% and the EC50 was 2.51 µM.
Regarding `Cc1ccc2c(c1)N=C(N1CCNCC1)c1cccc(C)c1O2` [4,8-Dimethyl-11-(piperazin-1-yl)-dibenzo[b,f][1,4]oxazepine], at muscarinic M2 receptor, the Emax worked out at 46% and the EC50 is 0.794 µM.
As to `Cc1cccc2c1Oc1ccccc1N=C2N1CCNCC1` [4-Methyl-11-(piperazin-1-yl)-dibenzo[b,f][1,4]oxazepine], on muscarinic M2 receptor, the Emax was 22%.
Same read-out and setting: to `Clc1cccc2c1Nc1ccccc1C(N1CCNCC1)=N2` [6-Chloro-11-(piperazin-1-yl)-5H-dibenzo[b,e][1,4]diazepine] belongs 71%.
Regarding `COc1ccc2c(c1)Oc1cc(Cl)ccc1N=C2N1CCNCC1` [7-Chloro-3-methoxy-11-(piperazin-1-yl)-dibenzo[b,f][1,4]oxazepine], on muscarinic M2 receptor, the Emax amounted to 44% and the EC50 was 1 µM.
`Cc1cccc2c1Oc1cc(Cl)ccc1N=C2N1CCNCC1` [7-Chloro-4-methyl-11-(piperazin-1-yl)-dibenzo[b,f][1,4]oxazepine]: at muscarinic M2 receptor, the Emax is 28% and the EC50 is 0.398 µM.
For the compound `Clc1ccc2c(c1)Oc1ccccc1C(N1CCNCC1)=N2` [7-Chloro-11-(piperazin-1-yl)-dibenzo[b,f][1,4]oxazepine], on muscarinic M2 receptor, the Emax is 53% and the EC50 is 1.26 µM.
On to `COc1ccc2c(c1)Oc1ccc(Br)cc1N=C2N1CCNCC1` [8-Bromo-3-methoxy-11-(piperazin-1-yl)-dibenzo[b,f][1,4]oxazepine], for which the Emax on muscarinic M2 receptor was 21%.
Consider `Cc1cccc2c1Oc1ccc(Br)cc1N=C2N1CCNCC1` [8-Bromo-4-methyl-11-(piperazin-1-yl)-dibenzo[b,f][1,4]oxazepine], for which, at muscarinic M2 receptor, the Emax stood at 48% and the EC50 was 1.58 µM.
In the case of `COc1ccc2c(c1)Oc1ccc(Cl)cc1N=C2N1CCNCC1` [8-Chloro-3-methoxy-11-(piperazin-1-yl)-dibenzo[b,f][1,4]oxazepine], the Emax at muscarinic M2 receptor worked out at 19%.
Take `COc1ccc2c(c1)Oc1ccc(F)cc1N=C2N1CCNCC1` [8-Fluoro-3-methoxy-11-(piperazin-1-yl)-dibenzo[b,f][1,4]oxazepine]: on muscarinic M2 receptor, the Emax was 49% and the EC50 was 2.51 µM.
Regarding `Cc1ccc2c(c1)N=C(N1CCNCC1)c1ccccc1O2` [8-Methyl-11-(piperazin-1-yl)-dibenzo[b,f][1,4]oxazepine], at muscarinic M2 receptor, the Emax is 76% and the EC50 was 3.16 µM.
As to `c1ccc(-c2ccc3c(c2)N=C(N2CCNCC2)c2ccccc2N3)cc1` [8-Phenyl-11-(piperazin-1-yl)-5H-dibenzo[b,e][1,4]diazepine], on muscarinic M2 receptor, the Emax came out at 104% and the EC50 was 2 µM.
On the same counts, the results for `c1ccc(-c2ccc3c(c2)N=C(N2CCNCC2)c2ccccc2O3)cc1` [8-Phenyl-11-(piperazin-1-yl)-dibenzo[b,f][1,4]oxazepine] are 33% and 1.26 µM.
Taken in the same sequence, the figures for `FC(F)(F)c1ccc2c(c1)N=C(N1CCNCC1)c1ccccc1O2` [11-(piperazin-1-yl)-8-trifluoromethyl-dibenzo[b,f][1,4]oxazepine] were 58% and 1.26 µM.
As for `c1ccc2c(c1)N=C(N1CCNCC1)c1ccccc1O2` [11-(piperazin-1-yl)-dibenzo[b,f][1,4]oxazepine], at muscarinic M2 receptor, the Emax was 58% and the EC50 is 2 µM.
Consider `Clc1ccc2c(c1)N=C(NC1CNC1)c1ccccc1N2` [Acetidin-3-yl-(8-chloro-5H-dibenzo[b,e][1,4]diazepine-11-yl)amine], for which, on muscarinic M2 receptor, the Emax came out at 17%.
